Measurements as given in US10881656B2, “HIF inhibitors and use thereof” (The General Hospital Corporation, priority 2008, dated 2021).

What was measured:
[1] = test system: HIF-2a mRNA; test: qRT-PCR for HIF-2a mRNA expression; type: cell-based, human; conditions: 786-O derived cells, qRT-PCR normalized to B2M
Experimental: ID NO: 1) and [NT] […] ID NO: 3) and [NT] ID NO: 4) for […] ID NO: 5) and [NT] ID NO: 6) for Transferrin Receptor 1 ([…] ID NO: 7) and [NT] ID NO: 8) for […] ID NO: 9) and [NT] ID NO: 10) for […] ID NO. 11) and [NT] ID NO: 12) for EGLN3. […] ID NO: 13) and [NT] ID NO: 14). Quantitative RT-PCR was performed on total RNA harvested from 7H4 cells treated with medium only, DMSO or compound. […] To test whether the compounds alter HIF-2a stability, the inventors assessed protein half-life following the addition of cycloheximide in compound versus DMSO-only treated cells (see FIG. 10).

[2] = test system: iron (Fe-(EDHB)3 complex); test: In vitro iron competition assay; conditions: 0-200 micromolars, absorbance at 500 nm
Experimental: This assay was performed similarly to that described previously (Wang et al., 2002). Briefly, displacement of iron from ethyl-3,4-dihydroxybenzoate (EDHB) complex was measured as a decrease in absorbance at 500 nm. Ferric iron, prepared as a 5 mM stock solution of FeC13 in 100 mM sodium citrate, was diluted to 25 μM in the presence of 750 μM EDHB. 1 ml aliquots of this solution were then mixed with 0, 25, 50, 100 or 200 micromolars of compounds 40, 41, 76, and 77 as well as EDTA and DFO for controls. […] The self absorbance of compound 41 in a matched solution lacking Fe-(EDHB)3 was subtracted from the A500 value obtained in the presence of the Fe-(EDHB)3 complex.
The inventors next directly tested whether the compounds bind iron by performing a competition assay in which the displacement of iron from ethyl-3,4-dihydroxybenzoate (EDHB), a weakly chelating ester, was measured as a decrease in absorbance at 500 nm. […] In addition, the inventors utilized the Connectivity Map to look for similarities between the induced gene expression signatures of low and high dose DFO and compound treated cells (Lamb et al., 2006). Using this bioinformatic approach, the inventors discovered no significant similarity between the gene expression profile of the compounds and low (chelating) DFO dose, while there was a negative correlation between compound effect and high (HIF stabilizing) DFO dose (see FIG. 13).

[3] = test system: HIF-2a 5′-UTR Iron-Responsive Element (IRE); test: Luciferase reporters with HIF-2a 5′-UTR / IRE in 786-O cells; type: cell-based, human; conditions: for dependence of effect on the IRE (wild-type or mutant 5′-UTR IRE reporter): 786-O luciferase reporter lines; for dependence of effect on HIF-2a 5′-UTR: HIF-2a promoter luciferase with or without 5′-UTR
[4] = test system: HIF-2a mRNA translation; test: 35S-methionine pulse-label immunoprecipitation of HIF-2a (translation); type: cell-based, human; conditions: 786-O cells
Experimental: (§1) Cells were treated with medium only, DMSO, or compound as described for western blots. Following the second day of treatment, cells were washed twice in PBS and then placed into medium only, DMSO, or labeling medium (methionine minus DMEM supplemented with 1× glutamine and 5% dialyzed FBS) and pulse-labeled for 30 minutes at 37° C. with 0.5 mCi ^35S-Methionine (New England Nuclear) per p100 plate. Cells were washed twice in PBS and lysed with RIPA buffer supplemented with protease inhibitors. […] In the case of the pulse-chase experiment, two identically treated plates were placed into chasing medium (DMEM supplemented with 10% Fetal Clone I, 1× Glutamine and 3 mg/mL methionine), placed back into the 37° C. incubator and harvested after 1.5 and 3 hours. Immunoprecipitated samples were subjected to SDS-PAGE, enhanced in sodium salicylate, dried and exposed for 2-3 days before the film was quantified by densitometry.
The effect of HIF inhibitors on protein translation was determined by ^35S-methionine pulse labeling DMSO or compound treated cells. […] Pulse chase experiments confirm that this decrease is not attributable to any effect on the protein half-life (see FIG. 11).
To determine if PGJ2 decreases translation of the HIF2a message, the inventors evaluated the synthesis rate and stability of the newly synthesized HIF2a by an ^35S-methionine pulse chase experiment on PGJ2 or vehicle only DMSO treated 786-O cells. […] Loading control is 1/1000th of the cell lysate used in the respective immunoprecipitation directly loaded into an SDS-PAGE gel.

[5] = test system: HIF-2a; test: HIF-2a protein stability (cycloheximide, 35S-methionine pulse chase); type: cell-based, human; conditions: 786-O cells; for HIF-2a protein stability after cycloheximide: 10 μg/mL cycloheximide
Experimental: Cells were treated with medium only, DMSO, or compound as described for western blots. Following the second day of compound incubation, 10 μg/mL cycloheximide (CHx) was added to halt de novo protein synthesis and time points were taken. Protein quantification and Western blots were performed as described.
as §1
Quantitative RT-PCR was performed on total RNA harvested from 7H4 cells treated with medium only, DMSO or compound. […] To test whether the compounds alter HIF-2a stability, the inventors assessed protein half-life following the addition of cycloheximide in compound versus DMSO-only treated cells (see FIG. 10).

[6] = test system: putative IRE in HIF-1a 5′-UTR; test: Luciferase reporter with putative HIF-1a IRE; type: cell-based, human; conditions: 786-O derived reporter lines, normoxia or 1% oxygen
Experimental: (§2) The consensus sequence of the loop and the mandatory 5′ cytosine bulge are highlighted with light blue circles. […] Duplicate plates of 786-O derived lines expressing the putative wild-type or mutant HIF-1a IRE were cultured in the presence of compound as described for FIG. 1, with the exception that one set was placed at 1% oxygen for 24 hours following the first day's medium-change. Cells were treated with M, medium only; D, DMSO; or compounds, as indicated at the following concentrations: 40, 40 μM; 41, 30 μM; 76, 10 μM; 77, 5 μM. […] CWR22R or Hep3B cells were treated with compound and subjected to hypoxia as described above. B-Actin is shown for loading control. Cells were treated with M, medium only; D, DMSO; or compounds, as indicated at the following concentrations: 40, 40 μM; 41, 30 μM; 76, 20 μM; 77, 7.5 μM.
The lack of a functional IRE in HIF-1a represents a clear dichotomy between the two HIF isoforms that allows their translation to be controlled by a different regulatory system.

[7] = test system: Transferrin Receptor 1 (TfR1) mRNA; test: qRT-PCR for Transferrin Receptor 1 mRNA; conditions: for Transferrin Receptor 1 mRNA expression: compound treated 786-O cells
[8] = test system: 786-O cells; test: Cellular toxicity at IC50 concentrations; type: cell-based, human
[9] = test system: HIF-1a; test: Western blot for HIF-1a in hypoxic CWR22R and Hep3B cells; type: cell-based, human; conditions: hypoxia
Experimental: as §2
Hypoxia stabilized HIF-2a in VHL-reconstituted WT8 cells, but treatment with compounds diminished hypoxia-induced HIF-2a expression (FIG. 3C).

Row | SMILES | HIF-2a mRNA expression [1] | displacement of iron from EDHB complex (iron chelation) [2] | effect on synthetic 5′-UTR stem loop reporter (CMV-SL over CMV) ([3]; 786-O cells, 10 μM) | dependence of effect on the IRE (wild-type or mutant 5′-UTR IRE reporter) [3] | dependence of effect on HIF-2a 5′-UTR [3] | HIF-2a mRNA translation (newly synthesized HIF-2a protein) [4] | HIF-2a protein stability after cycloheximide [5] | effect on putative IRE in HIF-1a 5′-UTR [6] | Transferrin Receptor 1 mRNA expression [7] | cellular toxicity [8] | HIF-2a protein stability by 35S-methionine pulse chase [5] | hypoxic induction of HIF-1a [9] | TfR1 mRNA stability ([7]; 786-O cells following addition of Actinomycin D)
1 | CCCCC/C=C/C=C1/C(=O)C=C[C@@H]1C/C=C\CCCC(=O)O [PGJ2, 15-deoxy-Δ^12,14-prostaglandin J2] | no concomitant decrease in HIF2a mRNA expression | not an iron chelator | no effect on the synthetic 5′-UTR element | completely abolished PGJ2 sensitivity | decreased the luciferase activity derived from the UTR-containing plasmid but not the plasmid driven by the HIF promoter alone | significantly decrease the amount of protein translated from the mRNA without decreasing the half-life of the protein | no indication that PGJ2 affects HIF2a protein half-life |  |  |  |  |  | 
2 | C/C(=C\c1ccccc1)C(=O)CCN(C)C.Cl [Compound 40, 5-(dimethylamino)-2-methyl-1-phenyl-1-penten-3-one hydrochloride] | do not effect HIF-2a mRNA expression | are not iron chelators |  | work via the Iron-Responsive Element (IRE) | dependent upon presence of 5′-UTR | decrease HIF-2a mRNA translation | no compound of 40, 41, 76 and 77 significantly affects HIF-2a stability | do not affect putative IRE in HIF-1a 5′-UTR | increase expression of Transferrin Receptor 1 mRNA | comparative lack of cellular toxicity at IC50 concentrations | have no affect on HIF-2a protein stability | indirectly suppress hypoxic induction of HIF-1a in multiple cell types | 
3 | COc1ccc(O)c(/C=C/C(=O)c2c(O)cc(C)oc2=O)c1 [Compound 41, 4-hydroxy-3-[3-(2-hydroxy-5-meoxyphenyl)acryloyl]-6-methyl-2H-pyran-2-one] | do not effect HIF-2a mRNA expression | are not iron chelators |  | work via the Iron-Responsive Element (IRE) | dependent upon presence of 5′-UTR | decrease HIF-2a mRNA translation | no compound of 40, 41, 76 and 77 significantly affects HIF-2a stability | do not affect putative IRE in HIF-1a 5′-UTR | increase expression of Transferrin Receptor 1 mRNA | comparative lack of cellular toxicity at IC50 concentrations | have no affect on HIF-2a protein stability | indirectly suppress hypoxic induction of HIF-1a in multiple cell types | 
4 | COC(=O)c1sccc1N/N=C(/C#N)S(C)(=O)=O [Compound 76, methyl 3-{2-[cyano(methylsulfonyl)methylene] hydrazino}thiophene-2-carboxylate] | do not effect HIF-2a mRNA expression | are not iron chelators |  | work via the Iron-Responsive Element (IRE) | dependent upon presence of 5′-UTR | decrease HIF-2a mRNA translation | no compound of 40, 41, 76 and 77 significantly affects HIF-2a stability | do not affect putative IRE in HIF-1a 5′-UTR | increase expression of Transferrin Receptor 1 mRNA | comparative lack of cellular toxicity at IC50 concentrations | have no affect on HIF-2a protein stability | indirectly suppress hypoxic induction of HIF-1a in multiple cell types | decreases TfR1 mRNA stability
5 | CC1(C)CC(=O)C=C(Sc2ccc(C#N)cc2[N+](=O)[O-])S1 [Compound 77, 4-[(2,2-dimethyl-4-oxo-3,4-dihydro-2H-thiin-6-yl)thio]-3-nitrobenzonitrile] | do not effect HIF-2a mRNA expression | are not iron chelators |  | work via the Iron-Responsive Element (IRE) | dependent upon presence of 5′-UTR | decrease HIF-2a mRNA translation | no compound of 40, 41, 76 and 77 significantly affects HIF-2a stability | do not affect putative IRE in HIF-1a 5′-UTR | increase expression of Transferrin Receptor 1 mRNA | comparative lack of cellular toxicity at IC50 concentrations | have no affect on HIF-2a protein stability | indirectly suppress hypoxic induction of HIF-1a in multiple cell types | 
